Source: the NIST ThermoML archive (doi:10.1021/je200903m)

Settings: Liquid, isochoric method

CCn1cc[n+](C)c1.O=S(=O)([O-])C(F)(F)F [1-ethyl-3-methylimidazolium trifluoromethanesulfonate]
Settings | mass density [kg/m3]
264.14 K, 39698 kPa | 1434.17
264.21 K, 29714 kPa | 1429.2
264.31 K, 10134 kPa | 1419.79
265.07 K, 1265.2 kPa | 1414.41
271.03 K, 50162 kPa | 1433.46
271.03 K, 50199 kPa | 1433.45
271.04 K, 9677.3 kPa | 1413.82
271.04 K, 11097 kPa | 1414.79
271.04 K, 19702 kPa | 1419.12
271.04 K, 29909 kPa | 1424.08
271.04 K, 30156 kPa | 1424.07
271.04 K, 40035 kPa | 1428.5
271.04 K, 40309 kPa | 1428.49
271.04 K, 60071 kPa | 1437.92
271.05 K, 20286 kPa | 1419.1
271.4 K, 1190.5 kPa | 1408.62
272.28 K, 2655.9 kPa | 1408.53
277.45 K, 49840 kPa | 1427.83
277.68 K, 39776 kPa | 1423.39
277.8 K, 30125 kPa | 1418.42
277.84 K, 10946 kPa | 1407.96
277.84 K, 19967 kPa | 1413.12
284.58 K, 20183 kPa | 1407.3
284.65 K, 40227 kPa | 1417.71
284.69 K, 60421 kPa | 1427.09
284.73 K, 50105 kPa | 1422.67
284.93 K, 30204 kPa | 1412.4
285.1 K, 728.1 kPa | 1397.61
291.42 K, 29930 kPa | 1406.61
291.49 K, 49838 kPa | 1417.02
291.92 K, 10046 kPa | 1396.94
291.92 K, 41361 kPa | 1412.67
291.94 K, 40088 kPa | 1411.69
292.62 K, 61503 kPa | 1421.86
298.19 K, 124.2 kPa | 1386.18
298.19 K, 39944 kPa | 1405.91
299.14 K, 60111 kPa | 1416.26
299.19 K, 50157 kPa | 1410.96
299.54 K, 20406 kPa | 1396.18
300.18 K, 1687.5 kPa | 1385.35
305.75 K, 49851 kPa | 1405.17
306.58 K, 60078 kPa | 1410.23
306.75 K, 10122 kPa | 1384.72
306.76 K, 29599 kPa | 1395.48
313.35 K, 59888 kPa | 1404.41
314.04 K, 19458 kPa | 1384.01
314.64 K, 40402 kPa | 1394.69
315.41 K, 1377.5 kPa | 1372.29
322.27 K, 50268 kPa | 1393.94
322.29 K, 30090 kPa | 1383.21
322.3 K, 9799.1 kPa | 1371.63
329.98 K, 59857 kPa | 1393.19
330.68 K, 40501 kPa | 1382.4
331.49 K, 1256.6 kPa | 1358.62
332.56 K, 22229 kPa | 1370.66
338.11 K, 9067.3 kPa | 1358
338.47 K, 50063 kPa | 1381.64
339.28 K, 30155 kPa | 1370.02
346.74 K, 59641 kPa | 1380.85
347.76 K, 20122 kPa | 1357.09
347.76 K, 40116 kPa | 1369.21
